Converted amounts (≈) assume the structure as drawn. “And” between values parts separate entries of the source, which are not always exact repeats. Equal values may be shown once. “Also recorded” adds a separate entry of the source. Read-outs that look alike come from different tables or passages of the source. Marks after values point to notes of the source that are not given here.
How the values were obtained:
[1] = tested on: MsmgΔmmpL3 expressing wild-type mmpL3tb; experiment: microbe, parasite or virus in culture; format: cell-based; settings: Mycolicibacterium smegmatis, MmpL3 WT, read-out: MIC
[2] = tested on: MsmgΔmmpL3 expressing mmpL3tb G253E; format: cell-based, Mycobacterium smegmatis
[3] = tested on: MsmgΔmmpL3 expressing mmpL3tb S288T; format: cell-based, Mycobacterium smegmatis
[4] = tested on: MsmgΔmmpL3 expressing mmpL3tb S309C; format: cell-based, Mycobacterium smegmatis
[5] = tested on: MsmgΔmmpL3 expressing mmpL3tb T311I; format: cell-based, Mycobacterium smegmatis
[6] = tested on: MsmgΔmmpL3 expressing mmpL3tb Q372R; format: cell-based, Mycobacterium smegmatis
[7] = tested on: MsmgΔmmpL3 expressing mmpL3tb L567P; format: cell-based, Mycobacterium smegmatis
[8] = tested on: MsmgΔmmpL3 expressing mmpL3tb F644C; format: cell-based, Mycobacterium smegmatis
[9] = tested on: MsmgΔmmpL3 expressing mmpL3tb V684G; format: cell-based, Mycobacterium smegmatis
[10] = tested on: MsmgΔmmpL3 expressing mmpL3tb LI89A; experiment: microbe, parasite or virus in culture; format: cell-based; settings: Mycolicibacterium smegmatis; Table 2; mutant LI89A; read-out: MIC
[11] = tested on: MsmgΔmmpL3 expressing mmpL3tb G253R; format: cell-based, Mycobacterium smegmatis
[12] = tested on: MsmgΔmmpL3 expressing mmpL3tb G253W; format: cell-based, Mycobacterium smegmatis
[13] = tested on: MsmgΔmmpL3 expressing mmpL3tb S591W; format: cell-based, Mycobacterium smegmatis
[14] = tested on: MsmgΔmmpL3 expressing mmpL3tb S591G; format: cell-based, Mycobacterium smegmatis
[15] = tested on: MsmgΔmmpL3 expressing mmpL3tb F644C/I/L; format: cell-based, Mycobacterium smegmatis
[16] = tested on: MsmgΔmmpL3 expressing mmpL3tb F644Y; format: cell-based, Mycobacterium smegmatis
[17] = tested on: MsmgΔmmpL3 expressing mmpL3tb V684I; format: cell-based, Mycobacterium smegmatis
[18] = tested on: MsmgΔmmpL3 expressing mmpL3tb V684W; format: cell-based, Mycobacterium smegmatis
Mtb = experiment: MIC values against Mtb used for the PMF assays; format: cell-based, Mycobacterium tuberculosis; settings: Mycobacterium tuberculosis; against Mtb; FIG. 8 legend; read-out: MIC values
purified MmpL3tb protein = purified MmpL3tb protein (Mycobacterium tuberculosis, UniProt P9WJV5); experiment: Surface Plasmon Resonance binding to immobilized MmpL3tb
purified MmpL3tb protein, sequence (P9WJV5 whole entry): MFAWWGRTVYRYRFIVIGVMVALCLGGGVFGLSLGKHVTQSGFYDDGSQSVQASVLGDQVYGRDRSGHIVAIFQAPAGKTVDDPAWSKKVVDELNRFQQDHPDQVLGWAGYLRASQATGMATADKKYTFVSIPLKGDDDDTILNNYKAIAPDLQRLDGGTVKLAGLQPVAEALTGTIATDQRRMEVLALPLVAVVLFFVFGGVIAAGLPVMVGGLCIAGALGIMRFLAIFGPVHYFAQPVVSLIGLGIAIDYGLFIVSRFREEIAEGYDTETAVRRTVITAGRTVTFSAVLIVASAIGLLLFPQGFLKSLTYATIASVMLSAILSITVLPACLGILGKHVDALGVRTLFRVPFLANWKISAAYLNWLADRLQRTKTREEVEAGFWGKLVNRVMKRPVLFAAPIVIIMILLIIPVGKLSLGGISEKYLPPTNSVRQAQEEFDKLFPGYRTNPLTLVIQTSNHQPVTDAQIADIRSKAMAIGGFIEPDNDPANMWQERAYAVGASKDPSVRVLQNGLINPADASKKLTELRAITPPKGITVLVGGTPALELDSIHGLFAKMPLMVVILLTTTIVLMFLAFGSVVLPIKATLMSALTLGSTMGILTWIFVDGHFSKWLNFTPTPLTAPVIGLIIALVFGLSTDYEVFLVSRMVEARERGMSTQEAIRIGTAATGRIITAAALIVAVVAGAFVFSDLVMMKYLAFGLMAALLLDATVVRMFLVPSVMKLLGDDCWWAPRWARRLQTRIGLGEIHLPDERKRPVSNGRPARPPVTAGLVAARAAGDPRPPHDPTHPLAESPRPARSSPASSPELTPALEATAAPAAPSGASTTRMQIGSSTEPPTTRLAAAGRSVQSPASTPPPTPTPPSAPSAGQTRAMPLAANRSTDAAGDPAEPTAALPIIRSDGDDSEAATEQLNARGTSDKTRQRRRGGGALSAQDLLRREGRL

MmpL3tb (MmpL3^WT) = MmpL3tb (MmpL3^WT) (Mycobacterium tuberculosis, UniProt P9WJV5); format: binding; settings: 50, 100 and 200 μM
MmpL3tb (MmpL3^WT), sequence (P9WJV5 whole entry): as above

purified MmpL3-GFP = purified MmpL3-GFP (Mycobacterium tuberculosis, UniProt P9WJV5); format: binding; settings: 2 μM Compound 2 with increasing inhibitor concentrations
purified MmpL3-GFP, sequence (P9WJV5 whole entry): as above

[19] = tested on: transfer of mycolic acids onto their cell envelope acceptors in MsmgΔmmpL3/pMVGH1-mmpL3tb; format: cell-based; settings: 3 hours
[20] = tested on: transmembrane potential (ΔΨ) of intact Mtb H37Rv mc^26206 cells; experiment: Membrane potential measurement with DiOC2(3) in intact cells; format: cell-based, Mycobacterium tuberculosis
[21] = tested on: transmembrane electrochemical proton gradient (ΔpH) of intact Mtb H37Rv mc^26206 cells; experiment: Electrochemical proton gradient measurement with CMFDA in intact cells; format: cell-based, Mycobacterium tuberculosis
[22] = tested on: Mtb H37Rv mc^26206 inverted membrane vesicles (IMVs); experiment: Succinate-driven proton translocation assay (ACMA) in inverted membrane vesicles; format: biochemical, Mycobacterium tuberculosis; settings: one and four times MIC against Mtb
Method: (§1) FIG. 19A: The reactions were initiated by adding 5 mM succinate. Upon stabilization of the signal, control compounds (INH, RIF, nigericin), the MmpL3 inhibitors or diluent (water, used for INH, or 0.2% DMSO, used for all other compounds) were added and proton translocation monitored fluorimetrically. MmpL3 inhibitors and controls were used at one and four times their MIC concentrations against Mtb. Shown are the averages and standard deviations (error bars) of triplicate measurements.
(§2) Succinate-driven proton translocation assays with the fluorescent substrate ACMA were conducted as previously described (see e.g., Li et al. J. Med. Chem. 2014, 57: 3126-3139) to determine the effect of MmpL3 inhibitors on the electrochemical proton gradient of Mtb H37Rv mc^26206 and E. coli BL21(DE3) IMVs. IMVs (0.18 mg/mL membrane proteins) were pre-incubated at 37° C. in 10 mM HEPES-KOH pH 7.5, 100 mM KCl, 5 mM MgCl2 containing 2 μM ACMA and the baseline monitored for 10 min with a fluorescence spectrophotometer (Victor X5, PerkinElmer). The reaction was then initiated by adding 5 mM succinate. Upon stabilization of the signal, control compounds (INH, RIF, nigericin), MmpL3 inhibitors, or diluent (0.2% DMSO or water) were added and proton translocation monitored fluorimetrically. The excitation and emission wavelengths were 410 nm and 480 nm, respectively.

E. coli BL21(DE3) IMVs = experiment: as above; format: biochemical; settings: 2 μg/mL
Method: as §1, §2

## CC(C)=CCC/C(C)=C/CNCCNC1C2CC3CC(C2)CC1C3 (stereo not drawn) [SQ109]
[1]; Table 2
  MIC: 0.31 µg/mL (≈ 0.938 µM)
[1]; Tables 1A-1B
  MIC: 0.39 µg/mL (≈ 1.18 µM)
[2]
  MIC: 1.25^b μg/mL and 1.25 μg/mL
[3]
  MIC: 3.13^a μg/mL
[4]
  MIC: 6.25^a μg/mL
[5]
  MIC: 0.78 µg/mL (≈ 2.36 µM)
[6]
  MIC: 0.78 µg/mL (≈ 2.36 µM)
[7]
  MIC: 1.56^b μg/mL
[8]
  MIC: 1.56^b μg/mL
[9]
  MIC: 0.39 μg/mL and 0.31-0.62^ μg/mL
[10]
  MIC: 0.31 to 0.62 µg/mL (≈ 0.938 to 1.88 µM)
[11]
  MIC: 0.31-0.62^c μg/mL
[12]
  MIC: 0.15-0.3^d μg/mL
[13]
  MIC: 0.31^c μg/mL
[14]
  MIC: 0.31^c μg/mL
[15]
  MIC: 0.62-1.25^ μg/mL
[16]
  MIC: 0.15-0.31^c μg/mL
[17]
  MIC: 0.31-0.62^ μg/mL
[18]
  MIC: 0.07-0.15^d μg/mL
Mtb
  MIC: 2.36 µM (≈ 0.78 µg/mL)
Purified MmpL3tb protein; SPR global fit
  ka2: 0.025 1/RU*s
  kd1: 2.32 s⁻¹
  kd2: 0.0436 s⁻¹
Purified MmpL3tb protein; SPR global fit, HEPES-TX buffer with 5% DMSO
  ka1: 1208.2 M⁻¹ s⁻¹
Purified MmpL3tb protein; SPR sensorgrams fit globally
  Model (best-fit kinetic model): Two-state reaction
Purified MmpL3tb protein; in words
  SPR binding signal: strong SPR signals
MmpL3tb (MmpL3^WT)
  BLI binding signal: consistently bound to MmpL3tb with the strongest signals
Purified MmpL3-GFP
  displacement of Compound 2 from purified MmpL3tb: not significant
[19]
  inhibition of transfer of mycolic acids to cell envelope acceptors: actually targeted MmpL3tb in the Msmg recombinant system
[20]
  effect on membrane potential (ΔΨ): dissipated ΔΨ in a concentration-dependent manner
[21]
  effect on electrochemical proton gradient (ΔpH): collapsed ΔpH
[22]
  effect on ΔpH of Mtb IMVs: increase of fluorescence intensity indicative of ΔpH collapse
E. coli BL21(DE3) IMVs
  effect on ΔpH of E. coli IMVs: collapse the ΔpH of E. coli IMVs; also recorded: similarly dissipated the pH gradient of IMVs prepared from E. coli

Source: patent US11608328B2, “Chemical probes to identify anti-mycobacterial MmpL3 inhibitors” (Creighton University, priority 2019, dated 2023)
